US20220331414A1, “LIPID COMPOUNDS AND LIPID NANOPARTICLE COMPOSITIONS” (Suzhou Abogen Biosciences Co., Ltd., priority 2020, published 2022)

What was measured:
[1] = Lipid nanoparticle size and polydispersity by dynamic light scattering; assay type: physicochemical; details: LNP of cationic lipid/DSPC/cholesterol/PEG-lipid 50:10:38.5:1.5 with mRNA
Description: (§1) Briefly, a cationic lipid provided herein, DSPC, cholesterol, and PEG-lipid were solubilized in ethanol at a molar ratio of 50:10:38.5:1.5, and mRNA were diluted in 10 to 50 mM citrate buffer, pH=4. The LNPs were prepared at a total lipid to mRNA weight ratio of approximately 10:1 to 30:1 by mixing the ethanolic lipid solution with the aqueous mRNA solution at a volume ratio of 1:3 using a microfluidic apparatus, total flow rate ranging from 9-30 mL/min. Ethanol were thereby removed and replaced by DPBS using dialysis. Finally, the lipid nanoparticles were filtered through a 0.2 μm sterile filter.
(§2) Lipid nanoparticle size were determined by dynamic light scattering using a Malvern Zetasizer Nano ZS (Malvern UK) using a 173° backscatter detection mode. The encapsulation efficiency of lipid nanoparticles were determined using a Quant-it Ribogreen RNA quantification assay kit (Thermo Fisher Scientific, UK) according to the manufacturer's instructions.

[2] = Encapsulation efficiency of lipid nanoparticles (Quant-it Ribogreen RNA assay); assay type: physicochemical
Description: as §1, §2

[3] = Apparent pKa of LNP formulations by TNS fluorescence assay; details: LNP cationic lipid/DSPC/cholesterol/DMG-PEG 50/10/38.5/1.5 mol %, pH 3 to 9
Description: TNS was prepared as a 300 uM stock solution in distilled water. LNP formulations were diluted to 0.1 mg/ml total lipid in 3 mL of buffered solutions containing 50 mM sodium citrate, 50 mM sodium phosphate, 50 mM sodium borate, and 30 mM sodium chloride where the pH ranged from 3 to 9. An aliquot of the TNS solution was added to give a final concentration of 0.1 mg/ml and following vortex mixing fluorescence intensity was measured at room temperature in a Molecular Devices Spectramax iD3 spectrometer using excitation and mission wavelengths of 325 nm and 435 nm. A sigmoidal best fit analysis was applied to the fluorescence data and the pKa value was measured as the pH giving rise to half—maximal fluorescent intensity.

[4] = LNP of cationic lipid/DSPC/cholesterol/PEG-lipid 50:10:38.5:1.5 with mRNA

SMILES	polydispersity [1]	size (nm) [1]	Encapsulation Efficiency [2, 4]	Apparant Pka [3]	Encapsulation Efficiency ([2]; cell printed without % sign)
CCCCCCCCC(CCCCCC)COP(=O)(NCCCN1CCCCC1)OCC(CCCCCC)CCCCCCCC (centres unmarked) [Compound 27]	0.135	83.11 nm	75.7%	5.18	
CCCCCCCCC(CCCCCC)COP(=O)(NCCN(CCO)C1CCC1)OCC(CCCCCC)CCCCCCCC (centres unmarked) [Compound 57]	0.196	78.22 nm	91.0%	5.325	
CCCCCCC(CCCCCC)COP(=O)(NCCN1CCCC1)OCC(CCCCCC)CCCCCC [Compound 83]	0.056	82.63 nm	87.8%	6.319	
CCCCCCCCC(CC)COP(=O)(NCCN(CC)CC)OCC(CC)CCCCCCCC (centres unmarked) [Compound 67]	0.116	86.9 nm	93.3%	7.195	
CCCCCCCCCCC(CCCCCCCCCC)COP(=O)(NCCN(CC)CC)OCC(CCCCCCCCCC)CCCCCCCCCC [Compound 86]			81.0%	4.924	
CCCCCCC(CCCCCC)COP(=O)(NCCN(CC)CC)OCC(CCCCCC)CCCCCC [Compound 82]	0.138	70.5 nm	86.9%	6.097	
CCCCCCCCC(CCC)COP(=O)(NCCN(CC)CC)OCC(CCC)CCCCCCCC (centres unmarked) [Compound 70]	0.298	53.76 nm	93.8%	6.153	
CCCCCCCCCOP(=O)(OCCCCCCCCC)OCCCN(C)C [Compound 8]	0.187	56.41 nm	93.2%	8.10	
CCCCCCCCC(CCCCCC)COP(=O)(NCCN(CCO)C1CCCCC1)OCC(CCCCCC)CCCCCCCC (centres unmarked) [Compound 47]	0.071	73.53 nm		5.27	0.864
CCCCCCCCC(CCCCCC)COP(=O)(NCCN(CCCC)CCCC)OCC(CCCCCC)CCCCCCCC (centres unmarked) [Compound 51]	0.167	88.45 nm	75.52%	6.66	
CCCCCCCCCCC(CCCCCCCCCC)COP(=O)(NCCN1CCCC1)OCC(CCCCCCCCCC)CCCCCCCCCC [Compound 87]	0.045	66.05 nm	93.8%	6.303	
CCCCCCCCC(C)COP(=O)(NCCN1CCCC1)OCC(C)CCCCCCCC (centres unmarked) [Compound 68]	0.253	86.75 nm	95.0%	7.401	
CCCCCCCCC(CCCCCC)COP(=O)(NCCN1CCOCC1)OCC(CCCCCC)CCCCCCCC (centres unmarked) [Compound 30]	0.197	71.91 nm	16.8%	3.88	
CCCCCCCCCOP(=O)(NCCN(C)C)OCCCCCCCCC [Compound 3]	0.154	53.41 nm	61.6%	8.59	
CCCCCCCCC(CCCCCC)COP(=O)(NCCN(C(C)C)C(C)C)OCC(CCCCCC)CCCCCCCC (centres unmarked) [Compound 48]	0.094	73.81 nm	93.48%		
CCCCCCCCC(CCCCCC)COP(=O)(NCCN1CC2CCCC2C1)OCC(CCCCCC)CCCCCCCC (centres unmarked) [Compound 61]	0.163	69.3 nm	82.85%		

Next, values leading:

polydispersity [1]	size (nm) [1]	Encapsulation Efficiency [2, 4]	Apparant Pka [3]	Encapsulation Efficiency ([2]; cell printed without % sign)	SMILES
0.218	56.41 nm	92.7%	5.661		CCCCCCCCC(CCCCCCCC)COP(=O)(NCCN1CCCC1)OCC(CCCCCCCC)CCCCCCCC [Compound 81]
0.037	138.5 nm	88.8%	5.644		CCCCCCCCC(CCCCCC)COP(=O)(NCCN(CCO)CCCC)OCC(CCCCCC)CCCCCCCC (centres unmarked) [Compound 54]
0.196	76.16 nm	98.3%	8.08		CCCCCCCCC(CCCCCCCC)OC(=O)CCCCCCCOP(=O)(NCCCN(C)C)OCCCCCCC (centres unmarked) [Compound 43]
0.408	69.38 nm	100.0%	6.52		CCCCCCCCCCCCCOP(=O)(NCCCN(C)C)OCCCCCCCC(=O)OC(CCCCCCCC)CCCCCCCC (centres unmarked) [Compound 39]
0.1	54.46 nm	102.3%			CCCCCCCCC(CCCCCCCC)OC(=O)CCCCCCCOP(=O)(NCCN(C)C)OCCCCCCC (centres unmarked) [Compound 42]
0.105	80.66 nm	70.2%	4.79		CCCCCCCCC(CCCCCC)COP(=O)(NCCN(C)C)OCC(CCCCCC)CCCCCCCC (centres unmarked) [Compound 21]
0.137	164.9 nm	94.0%	6.13		CCCCCCCCCCCCCOP(=O)(NCCCN1CCCC1)OCCCCCCCCCCCCC [Compound 12]
0.264	139.3 nm	92.5%	5.253		CCCCCCCCC(CCCCCC)COP(=O)(NCCN(CCO)CCCCCC)OCC(CCCCCC)CCCCCCCC (centres unmarked) [Compound 56]
0.091	63.97 nm	95.3%	6.20		CCCCCCCCC(CCCCCCCC)OC(=O)CCCCCCCOP(=O)(NCCCN(C)C)OCCCCCCCC(=O)OC(CCCCCCCC)CCCCCCCC [Compound 36]
0.09	93.25 nm	85.5%			CCCCCCCCC(CCCCCC)COP(=O)(NCCN(CCC)CCC)OCC(CCCCCC)CCCCCCCC (centres unmarked) [Compound 50]
0.114	54.72 nm	99.0%	6.85		CCCCCCCCC(CCCCCC)COP(=O)(NCCN(C)CCO)OCC(CCCCCC)CCCCCCCC (centres unmarked) [Compound 46]
0.073	119.8 nm	61.6%	5.42		CCCCCCCCCCCCCOP(=O)(NCCN1CCN(C(C)=O)CC1)OCCCCCCCCCCCCC [Compound 17]
0.132	62.03 nm	90.9%	5.615		CCCCCCCCC(CCCCCC)COP(=O)(NCCN(CCO)CCCCC)OCC(CCCCCC)CCCCCCCC (centres unmarked) [Compound 55]
0.306	50.64 nm	101.1%	7.70		CCCCCCCCCCCCCOP(=O)(NCCN1CCC1)OCCCCCCCC(=O)OC(CCCCCCCC)CCCCCCCC (centres unmarked) [Compound 41]
0.091	128.5 nm	98.2%	7.74		CCCCCCCCCOP(=O)(NCCN1CCCCC1)OCCCCCCCC(=O)OC(CCCCCCCC)CCCCCCCC (centres unmarked) [Compound 33]
0.141	54.17 nm	94.4%	6.149		CCCCCCCCCCC(CCCCCC)COP(=O)(NCCN(CC)CC)OCC(CCCCCC)CCCCCCCCCC (centres unmarked) [Compound 66]
0.12	63.18 nm	102.8%			CCCCCCCCC(CCCCCC)COC(=O)CCCCCOP(=O)(NCCCN(C)C)OCCCCCC(=O)OCC(CCCCCC)CCCCCCCC (centres unmarked) [Compound 45]
